pIC50: −log10 of the molar value.
Legend:
CP50-MEL-B = experiment: cells; assay type: functional, cell-based; conditions: Homo sapiens;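 note: growth inhibition of the human cell line, measured with a cell viability read-out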
Description: SANGER: Inhibition of human CP50-MEL-B cell growth in a cell viability assay.

DMS-153 = experiment: cells; assay type: functional, cell-based, Homo sapiens; conditions: Homo sapiens, DMS-153
Description: SANGER: Inhibition of human DMS-153 cell growth in a cell viability assay.

DMS-79 = experiment: cells; assay type: functional, cell-based, Homo sapiens; conditions: Homo sapiens, DMS-79
Description: SANGER: Inhibition of human DMS-79 cell growth in a cell viability assay.

Daudi = experiment: cells; assay type: functional, cell-based, Homo sapiens; conditions: Homo sapiens, Daudi;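 note: growth inhibition of Daudi cells, read out by a viability assay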
Description: SANGER: Inhibition of human Daudi cell growth in a cell viability assay.

EC-GI-10 = experiment: cells; assay type: functional, cell-based, Homo sapiens; conditions: Homo sapiens, EC-GI-10
Description: SANGER: Inhibition of human EC-GI-10 cell growth in a cell viability assay.

EFO-27 = experiment: cells; assay type: functional, cell-based; conditions: Homo sapiens;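 note: growth inhibition of EFO-27 cells, read out with a cell viability assay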
Description: SANGER: Inhibition of human EFO-27 cell growth in a cell viability assay.

FTC-133 = experiment: cells; assay type: functional, cell-based; conditions: Homo sapiens
G-401 = experiment: cells; assay type: functional, cell-based; conditions: Homo sapiens
Description: SANGER: Inhibition of human G-401 cell growth in a cell viability assay.

HCC1806 = experiment: cells; assay type: functional, cell-based; conditions: Homo sapiens;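 note: growth inhibition of the cancer cell line, determined with a cell viability assay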
Description: SANGER: Inhibition of human HCC1806 cell growth in a cell viability assay.

HCC 2998 = experiment: cells; assay type: functional, cell-based; conditions: Homo sapiens;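 note: growth inhibition of human HCC2998 cells, measured with a cell viability read-out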
Description: SANGER: Inhibition of human HCC2998 cell growth in a cell viability assay.

HCC70 = experiment: cells; assay type: functional, cell-based; conditions: Homo sapiens;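 note: cell viability assay measuring how strongly the compound suppresses proliferation of HCC70 cells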
Description: SANGER: Inhibition of human HCC70 cell growth in a cell viability assay.

HT-1080 = experiment: cells; assay type: functional, cell-based; conditions: Homo sapiens
Description: SANGER: Inhibition of human HT-1080 cell growth in a cell viability assay.

HT-3 = experiment: cells; assay type: functional, cell-based; conditions: Homo sapiens;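 note: growth inhibition measured with a cell viability readout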
Description: SANGER: Inhibition of human HT-3 cell growth in a cell viability assay.

HT55 = experiment: cells; assay type: functional, cell-based; conditions: Homo sapiens;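 note: cell viability readout measuring growth inhibition of human HT55 cells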
Description: SANGER: Inhibition of human HT55 cell growth in a cell viability assay.

IM-9 = experiment: SANGER: Inhibition of human IM-9 cell growth in a cell viability assay.; assay type: functional, cell-based; conditions: Homo sapiens, IM-9
KYSE-70 cell line = experiment: cells; assay type: functional, cell-based; conditions: Homo sapiens;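 note: cell viability assay read-out, with IC50 expressing suppression of KYSE-70 cell growth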
Description: SANGER: Inhibition of human KYSE-70 cell growth in a cell viability assay.

L-540 = experiment: cells; assay type: functional, cell-based, Homo sapiens; conditions: Homo sapiens, L-540;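 note: growth inhibition of the human L-540 cell line, read out with a viability assay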
Description: SANGER: Inhibition of human L-540 cell growth in a cell viability assay.

LP-1 = experiment: cells; assay type: functional, cell-based, Homo sapiens; conditions: Homo sapiens, LP-1;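 note: growth inhibition of human LP-1 cells, with the read-out taken from a cell viability assay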
Description: SANGER: Inhibition of human LP-1 cell growth in a cell viability assay.

M059J = experiment: cells; assay type: functional, cell-based; conditions: Homo sapiens;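 note: growth inhibition of M059J cells, read out with a cell viability assay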
Description: SANGER: Inhibition of human M059J cell growth in a cell viability assay.

MDA-MB-415 = experiment: cells; assay type: functional, cell-based; conditions: Homo sapiens
MG-63 = experiment: cells; assay type: functional, cell-based; conditions: Homo sapiens;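 note: growth inhibition of human MG-63 cells, read out with a cell viability assay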
Description: SANGER: Inhibition of human MG-63 cell growth in a cell viability assay.

MKN-45 = experiment: cells; assay type: functional, cell-based; conditions: Homo sapiens;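 note: growth inhibition of human MKN-45 cells, measured with a cell viability assay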
Description: SANGER: Inhibition of human MKN45 cell growth in a cell viability assay.

NCI-H1436 = experiment: cells; assay type: functional, cell-based, Homo sapiens; conditions: Homo sapiens, NCI-H1436;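 note: growth suppression of human NCI-H1436 cells, determined with a cell viability readout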
Description: SANGER: Inhibition of human NCI-H1436 cell growth in a cell viability assay.

NCI-H1623 = experiment: cells; assay type: functional, cell-based; conditions: Homo sapiens;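 note: cell viability assay used as the read-out for growth inhibition of NCI-H1623 cells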
Description: SANGER: Inhibition of human NCI-H1623 cell growth in a cell viability assay.

NCI-H187 = experiment: cells; assay type: functional, cell-based, Homo sapiens; conditions: Homo sapiens, NCI-H187;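 note: growth inhibition of NCI-H187 cells, read out as cell viability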
Description: SANGER: Inhibition of human NCI-H187 cell growth in a cell viability assay.

NCI-H2052 = experiment: cells; assay type: functional, cell-based; conditions: Homo sapiens;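 note: growth inhibition of NCI-H2052 cells, read out with a cell viability assay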
Description: SANGER: Inhibition of human NCI-H2052 cell growth in a cell viability assay.

NCI-H2452 = experiment: cells; assay type: functional, cell-based; conditions: Homo sapiens;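 note: growth inhibition of NCI-H2452 cells, read out with a cell viability assay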
Description: SANGER: Inhibition of human NCI-H2452 cell growth in a cell viability assay.

NCI-H345 = experiment: cells; assay type: functional, cell-based, Homo sapiens; conditions: Homo sapiens, NCI-H345;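 note: growth inhibition of NCI-H345 cells measured with a cell viability assay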
Description: SANGER: Inhibition of human NCI-H345 cell growth in a cell viability assay.

SNU-16 = experiment: cells; assay type: functional, cell-based, Homo sapiens; conditions: Homo sapiens, SNU-16;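 note: growth inhibition of human SNU-16 cells, determined with a cell viability readout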
Description: SANGER: Inhibition of human NCI-SNU-16 cell growth in a cell viability assay.

NY = experiment: cells; assay type: functional, cell-based; conditions: Homo sapiens
Description: SANGER: Inhibition of human NY cell growth in a cell viability assay.

OPM-2 = experiment: cells; assay type: functional, cell-based, Homo sapiens; conditions: Homo sapiens, OPM-2;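 note: growth of OPM-2 cells measured with a viability assay, IC50 for suppression of proliferation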
Description: SANGER: Inhibition of human OPM-2 cell growth in a cell viability assay.

PC-3 = experiment: cells; assay type: functional, cell-based; conditions: Homo sapiens;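 note: cell viability assay measuring growth inhibition of PC-3 cells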
Description: SANGER: Inhibition of human PC-3 cell growth in a cell viability assay.

REH = experiment: cells; assay type: functional, cell-based, Homo sapiens; conditions: Homo sapiens, REH;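 note: growth inhibition of REH cells determined with a cell viability read-out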
Description: SANGER: Inhibition of human REH cell growth in a cell viability assay.

RMG-I = experiment: cells; assay type: functional, cell-based; conditions: Homo sapiens;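 note: growth inhibition of human RMG-I cells, read out with a cell viability assay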
Description: SANGER: Inhibition of human RMG-I cell growth in a cell viability assay.

RPMI-7951 = experiment: cells; assay type: functional, cell-based; conditions: Homo sapiens
Description: SANGER: Inhibition of human RPMI-7951 cell growth in a cell viability assay.

RPMI 8402 = experiment: SANGER: Inhibition of human RPMI-8402 cell growth in a cell viability assay.; assay type: functional, cell-based; conditions: Homo sapiens, RPMI 8402
SBC-5 = experiment: cells; assay type: functional, cell-based; conditions: Homo sapiens;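 note: cell viability assay read-out, IC50 is the concentration that inhibits growth of the cells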
Description: SANGER: Inhibition of human SBC-5 cell growth in a cell viability assay.

SIG-M5 = experiment: cells; assay type: functional, cell-based, Homo sapiens; conditions: Homo sapiens, SIG-M5;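 note: cell viability assay read-out, measuring how strongly growth of cultured human SIG-M5 cells is inhibited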
Description: SANGER: Inhibition of human SIG-M5 cell growth in a cell viability assay.

SK-MEL-24 = experiment: cells; assay type: functional, cell-based; conditions: Homo sapiens;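 note: growth inhibition read out by a cell viability assay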
Description: SANGER: Inhibition of human SK-MEL-24 cell growth in a cell viability assay.

SK-MM-2 = experiment: cells; assay type: functional, cell-based, Homo sapiens; conditions: Homo sapiens, SK-MM-2;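 note: growth inhibition of human SK-MM-2 cells, read out with a cell viability assay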
Description: SANGER: Inhibition of human SK-MM-2 cell growth in a cell viability assay.

SNU-C1 = experiment: cells; assay type: functional, cell-based, Homo sapiens; conditions: Homo sapiens, SNU-C1;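 note: growth inhibition of SNU-C1 human cells, read out by a cell viability assay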
Description: SANGER: Inhibition of human SNU-C1 cell growth in a cell viability assay.

SUP-T1 = experiment: cells; assay type: functional, cell-based, Homo sapiens; conditions: Homo sapiens, SUP-T1;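 note: growth inhibition of human SUP-T1 cells, read out as cell viability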
Description: SANGER: Inhibition of human SUP-T1 cell growth in a cell viability assay.

SW1417 = experiment: cells; assay type: functional, cell-based; conditions: Homo sapiens;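 note: growth inhibition of human SW1417 cells, read out with a cell viability assay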
Description: SANGER: Inhibition of human SW1417 cell growth in a cell viability assay.

SW48 = experiment: cells; assay type: functional, cell-based; conditions: Homo sapiens;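 note: growth inhibition of SW48 cells, read out with a cell viability assay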
Description: SANGER: Inhibition of human SW48 cell growth in a cell viability assay.

SiHa = experiment: cells; assay type: functional, cell-based; conditions: Homo sapiens;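 note: Viability-based readout of growth inhibition in SiHa cells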
Description: SANGER: Inhibition of human SiHa cell growth in a cell viability assay.

T-24 = experiment: cells; assay type: functional, cell-based; conditions: Homo sapiens;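 note: growth inhibition of T-24 cells, read out with a cell viability assay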
Description: SANGER: Inhibition of human T-24 cell growth in a cell viability assay.

TALL-1 = experiment: cells; assay type: functional, cell-based, Homo sapiens; conditions: Homo sapiens, TALL-1;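 note: growth inhibition of cultured human TALL-1 cells, read out by a cell viability assay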
Description: SANGER: Inhibition of human TALL-1 cell growth in a cell viability assay.

23132-87 = experiment: cells; assay type: functional, cell-based; conditions: Homo sapiens
Description: SANGER: Inhibition of human 23132-87 cell growth in a cell viability assay.

A 172 = experiment: cells; assay type: functional, cell-based; conditions: Homo sapiens;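 note: growth inhibition of A172 cells, measured with a cell viability readout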
Description: SANGER: Inhibition of human A172 cell growth in a cell viability assay.

A-431 = experiment: cells; assay type: functional, cell-based; conditions: Homo sapiens;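 note: growth inhibition of A-431 cells, determined with a cell viability read-out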
Description: SANGER: Inhibition of human A431 cell growth in a cell viability assay.

AGS = experiment: cells; assay type: functional, cell-based; conditions: Homo sapiens;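 note: growth inhibition of AGS cells, determined with a cell viability assay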
Description: SANGER: Inhibition of human AGS cell growth in a cell viability assay.

ASPC1 = experiment: cells; assay type: functional, cell-based; conditions: Homo sapiens;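 note: growth inhibition of AsPC-1 cells, read out with a cell viability assay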
Description: SANGER: Inhibition of human AsPC-1 cell growth in a cell viability assay.

BC-3 = experiment: cells; assay type: functional, cell-based, Homo sapiens; conditions: Homo sapiens, BC-3;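 note: cell viability assay measuring growth inhibition of human BC-3 cells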
Description: SANGER: Inhibition of human BC-3 cell growth in a cell viability assay.

CAL-12T = experiment: cells; assay type: functional, cell-based; conditions: Homo sapiens;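 note: growth inhibition of human CAL-12T cells, read out with a cell viability assay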
Description: SANGER: Inhibition of human CAL-12T cell growth in a cell viability assay.

CAL-62 = experiment: cells; assay type: functional, cell-based; conditions: Homo sapiens;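 note: growth inhibition of CAL-62 cells, read out with a cell viability assay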
Description: SANGER: Inhibition of human CAL-62 cell growth in a cell viability assay.

TUR = experiment: cells; assay type: functional, cell-based, Homo sapiens; conditions: Homo sapiens, TUR;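 note: growth inhibition of human TUR cells, read out with a cell viability assay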
Description: SANGER: Inhibition of human TUR cell growth in a cell viability assay.

TYK-nu = experiment: cells; assay type: functional, cell-based; conditions: Homo sapiens;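 note: growth inhibition of human TYK-nu cells, read out by a cell viability assay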
Description: SANGER: Inhibition of human TYK-nu cell growth in a cell viability assay.

U-251 = experiment: cells; assay type: functional, cell-based; conditions: Homo sapiens;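 note: growth inhibition of human U-251 cells, read out through a cell viability assay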
Description: SANGER: Inhibition of human U251 cell growth in a cell viability assay.

Measured: pIC50

COC(=O)[C@H](CCSC)NC(=O)c1ccc(NC[C@@H](N)CS)cc1-c1ccccc1
< 5.99: all assays above
